The text below walks through data of patent publication US9850283B2, “Macrocyclic inhibitors of the PD-1/PD-L1 and CD80(B7-1)/PD-L1 protein/protein interactions” (BRISTOL-MYERS SQUIBB COMPANY, priority 2013, dated 2017).

Where two headings read alike, the source gives them in different places. Positions of bridges follow the written chain, without caps; N, C: chain ends. Non-standard residues stand in square brackets, D forms with d. Residues, ends and D or L forms follow the SMILES beside them. Phe(F5) = N[C@@H](Cc1c(F)c(F)c(F)c(F)c1F)C(=O)O; Phe(3-Cl) = N[C@@H](Cc1cccc(Cl)c1)C(=O)O; Phe(4-Br) = N[C@@H](Cc1ccc(Br)cc1)C(=O)O; Phe(4-F) = N[C@@H](Cc1ccc(F)cc1)C(=O)O; NMeF = CN[C@@H](Cc1ccccc1)C(=O)O; hPhe = N[C@@H](CCc1ccccc1)C(=O)O; NMeNle = CCCC[C@H](NC)C(=O)O; Sar = CNCC(=O)O

One assay deals with T1, Human PD-L1/PD-1 (Homo sapiens, UniProt Q9NZQ7).
T1 construct: made in house; host or cells: HEK293T
T1 sequence (Q9NZQ7 with tags, fused parts or gaps): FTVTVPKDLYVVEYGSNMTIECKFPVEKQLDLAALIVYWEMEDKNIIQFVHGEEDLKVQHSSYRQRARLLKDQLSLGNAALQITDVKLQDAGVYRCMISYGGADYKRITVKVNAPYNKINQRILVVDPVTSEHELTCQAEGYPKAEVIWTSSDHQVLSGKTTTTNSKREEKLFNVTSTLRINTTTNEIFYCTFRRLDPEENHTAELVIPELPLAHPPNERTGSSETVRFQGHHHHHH
The assay is described as follows: HTRF PD-1-Ig/PD-L1-His binding assay (human PD-L1). Summed up: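 Soluble PD-1-Ig binding to PD-L1-His measured by HTRF in dPBS with 0.1% BSA and 0.05% Tween-20. Detection used europium cryptate anti-Ig antibody (1 nM final) and APC anti-His antibody (20 nM final) added on top of the binding reaction.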
In general terms: TR-FRET usually uses a lanthanide donor and a delayed reading to cut background.

The target in assay [1] is T2, LK35.2-hPD-L1 cells / PE-labeled PD-1-Ig (Homo sapiens, UniProt Q9NZQ7).
T2 construct: expressed in transfected cells; host or cells: LK35.2 mouse B cell line
T2 sequence (Q9NZQ7 19-290): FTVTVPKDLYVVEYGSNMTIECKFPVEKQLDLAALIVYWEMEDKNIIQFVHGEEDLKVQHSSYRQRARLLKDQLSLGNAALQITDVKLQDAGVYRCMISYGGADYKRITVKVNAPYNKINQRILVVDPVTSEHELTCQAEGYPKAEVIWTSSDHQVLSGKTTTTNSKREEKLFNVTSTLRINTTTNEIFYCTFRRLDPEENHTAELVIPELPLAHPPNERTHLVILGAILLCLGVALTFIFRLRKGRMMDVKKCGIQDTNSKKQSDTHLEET
Description: LK35.2-hPD-L1 cell binding high-content screening assay. The assay is classed as cell-based. The conditions noted are these: cell line of CBA not given (LK35.2-hPD-L1 or 293T-hPD-L1). Summed up: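 Using overnight-cultured LK35.2-hPD-L1 mouse B cells, compound was co-incubated with phycoerythrin-tagged human PD-1-Ig (final 1 nM) at 37 °C for one hour. Unbound label was removed by triple dPBS washing prior to high-content image acquisition and analysis.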

Setting [2] is: cluster symbol, read-out: HTRF IC50 cluster.
Where [3] appears, read: cluster symbol, read-out: CBA IC50 cluster.

Regarding `CCCC[C@H]1C(=O)N(C)CC(=O)N[C@@H](CC(=O)O)C(=O)N[C@@H](C(C)C)C(=O)N(C)[C@@H](Cc2ccccc2)C(=O)N[C@@H](Cc2ccc(F)cc2)C(=O)N(C)CC(=O)N[C@@H](Cc2c[nH]c3ccccc23)C(=O)N[C@@H](Cc2ccc(O)cc2)C(=O)N[C@@H](CC(C)C)C(=O)N[C@H](C(=O)NCC(N)=O)CSCC(=O)N[C@@H](Cc2ccccc2)C(=O)N(C)[C@@H](Cc2ccccc2)C(=O)N1C` [Example 3077] ({CH2CO}-F[NMeF][NMeNle][Sar]DV[NMeF][Phe(4-F)][Sar]WYLCG-NH2; thioether N-13), the values for the 50% inhibitory concentration (IC50) (on Human PD-L1/PD-1 (setting [2]); in assay [1] (setting [3])) were greater than 30.5 nM and greater than 74.3 nM, respectively.
For `CCCC[C@H]1C(=O)N(C)CC(=O)N[C@@H](CC(=O)O)C(=O)N[C@@H](C(C)C)C(=O)N(C)[C@@H](Cc2ccccc2)C(=O)N[C@@H](Cc2ccc(O)cc2)C(=O)N(C)CC(=O)N[C@@H](Cc2c[nH]c3ccccc23)C(=O)N[C@@H](Cc2ccc(O)cc2)C(=O)N[C@@H](CC(C)C)C(=O)N[C@H](C(=O)NCC(N)=O)CSCC(=O)N[C@@H](Cc2c(F)c(F)c(F)c(F)c2F)C(=O)N(C)[C@@H](Cc2ccccc2)C(=O)N1C` [Example 3078] ({CH2CO}-[Phe(F5)][NMeF][NMeNle][Sar]DV[NMeF]Y[Sar]WYLCG-NH2; thioether N-13), the figures for the half-inhibitory concentration (IC50) (on Human PD-L1/PD-1 (setting [2]); in assay [1] (setting [3])) were greater than 30.5 nM and greater than 74.3 nM, respectively.
For the compound `CCCC[C@H]1C(=O)N(C)CC(=O)N[C@@H](CC(=O)O)C(=O)N[C@@H](C(C)C)C(=O)N(C)[C@@H](Cc2ccccc2)C(=O)N[C@@H](Cc2c(F)c(F)c(F)c(F)c2F)C(=O)N(C)CC(=O)N[C@@H](Cc2c[nH]c3ccccc23)C(=O)N[C@@H](Cc2ccc(O)cc2)C(=O)N[C@@H](CC(C)C)C(=O)N[C@H](C(=O)NCC(N)=O)CSCC(=O)N[C@@H](Cc2ccccc2)C(=O)N(C)[C@@H](Cc2ccccc2)C(=O)N1C` [Example 3079] ({CH2CO}-F[NMeF][NMeNle][Sar]DV[NMeF][Phe(F5)][Sar]WYLCG-NH2; thioether N-13), the 50% inhibitory concentration (IC50) is greater than 30.5 nM on Human PD-L1/PD-1 (setting [2]) and 4.78 to 72.9 nM in assay [1] (setting [3]).
For the compound `CCCC[C@H]1C(=O)N(C)CC(=O)N[C@@H](CC(=O)O)C(=O)N[C@@H](C(C)C)C(=O)N(C)[C@@H](Cc2ccccc2)C(=O)N[C@@H](Cc2ccc(O)cc2)C(=O)N(C)CC(=O)N[C@@H](Cc2c[nH]c3ccccc23)C(=O)N[C@@H](Cc2c(F)c(F)c(F)c(F)c2F)C(=O)N[C@@H](CC(C)C)C(=O)N[C@H](C(=O)NCC(N)=O)CSCC(=O)N[C@@H](Cc2ccccc2)C(=O)N(C)[C@@H](Cc2ccccc2)C(=O)N1C` [Example 3080] ({CH2CO}-F[NMeF][NMeNle][Sar]DV[NMeF]Y[Sar]W[Phe(F5)]LCG-NH2; thioether N-13), the IC50 (on Human PD-L1/PD-1 (read-out: HTRF IC50 value); in assay [1] (read-out: CBA IC50 value)) was greater than 10000 nM each time.
Take `CCCC[C@H]1C(=O)N(C)CC(=O)N[C@@H](CC(=O)O)C(=O)N[C@@H](C(C)C)C(=O)N(C)[C@@H](Cc2ccccc2)C(=O)N[C@@H](Cc2ccc(O)cc2)C(=O)N(C)CC(=O)N[C@@H](Cc2c[nH]c3ccccc23)C(=O)N[C@@H](Cc2ccc(O)cc2)C(=O)N[C@@H](CC(C)C)C(=O)N[C@H](C(=O)NCC(N)=O)CSCC(=O)N[C@@H](Cc2ccc(Br)cc2)C(=O)N(C)[C@@H](Cc2ccccc2)C(=O)N1C` [Example 3081] ({CH2CO}-[Phe(4-Br)][NMeF][NMeNle][Sar]DV[NMeF]Y[Sar]WYLCG-NH2; thioether N-13): the half-maximal inhibitory concentration (IC50) at Human PD-L1/PD-1 (setting [2]) was greater than 30.5 nM; in assay [1] (setting [3]), 4.78 to 72.9 nM.
As to `CCCC[C@H]1C(=O)N(C)CC(=O)N[C@@H](CC(=O)O)C(=O)N[C@@H](C(C)C)C(=O)N(C)[C@@H](Cc2ccccc2)C(=O)N[C@@H](Cc2ccc(O)cc2)C(=O)N(C)CC(=O)N[C@@H](Cc2c[nH]c3ccccc23)C(=O)N[C@@H](Cc2ccc(O)cc2)C(=O)N[C@@H](CC(C)C)C(=O)N[C@H](C(=O)NCC(N)=O)CSCC(=O)N[C@@H](CCc2ccccc2)C(=O)N(C)[C@@H](Cc2ccccc2)C(=O)N1C` [Example 3082] ({CH2CO}-[hPhe][NMeF][NMeNle][Sar]DV[NMeF]Y[Sar]WYLCG-NH2; thioether N-13), the IC50 on Human PD-L1/PD-1 (setting [2]) is greater than 30.5 nM; in assay [1] (setting [3]), greater than 74.3 nM.
For the compound `CCCC[C@H]1C(=O)N(C)CC(=O)N[C@@H](CC(=O)O)C(=O)N[C@@H](C(C)C)C(=O)N(C)[C@@H](Cc2ccccc2)C(=O)N[C@@H](Cc2ccc(O)cc2)C(=O)N(C)CC(=O)N[C@@H](Cc2c[nH]c3ccccc23)C(=O)N[C@@H](Cc2ccc(O)cc2)C(=O)N[C@@H](CC(C)C)C(=O)N[C@H](C(=O)NCC(N)=O)CSCC(=O)N[C@@H](Cc2cccc(Cl)c2)C(=O)N(C)[C@@H](Cc2ccccc2)C(=O)N1C` [Example 3086] ({CH2CO}-[Phe(3-Cl)][NMeF][NMeNle][Sar]DV[NMeF]Y[Sar]WYLCG-NH2; thioether N-13), the IC50 lay in the range of 0.385 to 6.74 nM on Human PD-L1/PD-1 (setting [2]) and 0.158 to 4.71 nM in assay [1] (setting [3]).
Take `CCCC[C@H]1C(=O)N(C)CC(=O)N[C@@H](CC(=O)O)C(=O)N[C@@H](C(C)C)C(=O)N(C)[C@@H](Cc2ccccc2)C(=O)N[C@@H](Cc2ccc(O)cc2)C(=O)N(C)CC(=O)N[C@@H](Cc2c[nH]c3ccccc23)C(=O)N[C@@H](Cc2ccc(O)cc2)C(=O)N[C@@H](CC(C)C)C(=O)N[C@H](C(=O)NCC(N)=O)C(C)(C)SCC(=O)N[C@@H](Cc2ccccc2)C(=O)N(C)[C@@H](Cc2ccccc2)C(=O)N1C` [Example 3087] (HELM PEPTIDE1{[O=C(C[*:3])[*:2]].F.[meF].[CCCC[C@@H](C(=O)[*:2])N(C)[*:1]].[Sar].D.V.[meF].Y.[Sar].W.Y.L.[Pen].G.[am]}$PEPTIDE1,PEPTIDE1,1:R3-14:R3$$$V2.0): the IC50 on Human PD-L1/PD-1 (setting [2]) was greater than 30.5 nM; in assay [1] (setting [3]), greater than 74.3 nM.
Consider `CCCC[C@H]1C(=O)N(C)CC(=O)N[C@@H](CC(=O)O)C(=O)N[C@@H](C(C)C)C(=O)N(C)[C@@H](Cc2ccccc2)C(=O)N[C@@H](Cc2ccc(O)cc2)C(=O)N(C)CC(=O)N[C@@H](Cc2c[nH]c3ccccc23)C(=O)N[C@@H](Cc2ccc(O)cc2)C(=O)N[C@@H](CC(C)C)C(=O)N[C@H](C(=O)NCC(N)=O)CSCC(=O)N[C@@H](Cc2ccc(OC)cc2)C(=O)N(C)[C@@H](Cc2ccccc2)C(=O)N1C` [Example 3089] ({CH2CO}-Y(Me)[NMeF][NMeNle][Sar]DV[NMeF]Y[Sar]WYLCG-NH2; thioether N-13), for which the IC50 was greater than 30.5 nM at Human PD-L1/PD-1 (setting [2]) and greater than 74.3 nM in assay [1] (setting [3]).
Consider `CCCC[C@H]1C(=O)N(C)CC(=O)N[C@@H](CC(=O)O)C(=O)N[C@@H](C(C)C)C(=O)N(C)[C@@H](Cc2ccccc2)C(=O)N[C@@H](Cc2ccc(O)cc2)C(=O)N(C)CC(=O)N[C@@H](Cc2c[nH]c3ccccc23)C(=O)N[C@@H](Cc2ccc(O)cc2)C(=O)N[C@@H](CC(C)C)C(=O)N[C@H](C(=O)NCC(N)=O)CSCC(=O)N[C@@H](Cc2c[nH]c3ccccc23)C(=O)N(C)[C@@H](Cc2ccccc2)C(=O)N1C` [Example 3090] (HELM PEPTIDE1{[O=C(C[*:3])[*:2]].W.[meF].[CCCC[C@@H](C(=O)[*:2])N(C)[*:1]].[Sar].D.V.[meF].Y.[Sar].W.Y.L.C.G.[am]}$PEPTIDE1,PEPTIDE1,1:R3-14:R3$$$V2.0), for which the IC50 at Human PD-L1/PD-1 (setting [2]) is greater than 30.5 nM; in assay [1] (setting [3]), greater than 74.3 nM.

As a reminder, the IC50 is the point on the concentration scale where inhibition reaches its midpoint.
